# Measured values from US20080058213A1, “Benzoxazole Compounds” (priority 2004, published 2008).
# Assays:
# Assay type in all cases: in vivo
# [1] = system: barnyard grass (Echinochloa crusgalli); assay: Weed control test for paddy field (Test Example 1): barnyard grass; conditions: paddy pots, treated at 1.0 leaf stage of barnyard grass, examined after 3 weeks
# In short: (§1)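 Paddy-soil pots flooded to 3 cm, seeded with weeds and transplanted with 2.0-leaf rice. Wettable-powder formulations diluted in water and applied dropwise at a prescribed active-ingredient dose per are at barnyard grass 1.0-leaf stage. After 3 weeks in a 25 °C glasshouse, growth inhibition versus untreated control scored 0–5 (0: <20%; 5: 100%).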
# [2] = system: Monochoria (Monochoria vaginalis); assay: Weed control test for paddy field (Test Example 1): Monochoria; conditions: paddy pots, treated at 1.0 leaf stage of barnyard grass, examined after 3 weeks
# In short: as §1
# [3] = system: Japanese bulrush (Scirpus juncoides); assay: Weed control test for paddy field (Test Example 1): Japanese bulrush; conditions: paddy pots, treated at 1.0 leaf stage of barnyard grass, examined after 3 weeks
# In short: as §1
# [4] = system: flat sedge (Cyperus serotinus); assay: Weed control test for paddy field (Test Example 1): flat sedge; conditions: paddy pots, treated at 1.0 leaf stage of barnyard grass, examined after 3 weeks
# In short: as §1
# rice plant = assay: Weed control test for paddy field (Test Example 1): phytotoxicity to rice plant; conditions: paddy pots, treated at 1.0 leaf stage of barnyard grass, examined after 3 weeks
# In short: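 Rice transplanted at 2.0 leaf stage into flooded paddy soil pots (3 cm water) sown with weeds. Wettable powder applied dropwise at a prescribed active ingredient dose per are at 1.0 leaf stage of barnyard grass. Kept 3 weeks in glasshouse at 25 °C. Phytotoxicity scored 0 (normal) to 5 (killed) against untreated control.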
# [5] = system: southern crabgrass (Digitaria ciliaris); assay: Soil treatment test for upland field (Test Example 2): southern crabgrass; conditions: soil treatment before germination, examined after 3 weeks
# In short: (§2)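 Pre-emergence soil spray: wettable powder diluted in water, applied at 15 L/are to seeded upland soil in 1/3,000 are pots. Glasshouse, avg 25° C, 3 wk. Score 0–5 by % growth inhibition vs untreated (0: <20%; 5: 100%).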
# [6] = system: common lambsquaters (Chenopodium album); assay: Soil treatment test for upland field (Test Example 2): common lambsquaters; conditions: soil treatment before germination, examined after 3 weeks
# In short: as §2
# [7] = system: slender amaranth (Amaranthus viridis); assay: Soil treatment test for upland field (Test Example 2): slender amaranth; conditions: soil treatment before germination, examined after 3 weeks
# In short: as §2
# [8] = system: common purslane (Portulaca oleracea); assay: Soil treatment test for upland field (Test Example 2): common purslane; conditions: soil treatment before germination, examined after 3 weeks
# In short: as §2
# [9] = system: velvetleaf (Abutilon theophrasti); assay: Soil treatment test for upland field (Test Example 2): velvetleaf; conditions: soil treatment before germination, examined after 3 weeks
# In short: as §2
# wheat [10] = assay: Soil treatment test for upland field (Test Example 2): phytotoxicity to wheat; conditions: soil treatment before germination, examined after 3 weeks; note: key: 0: normal growth; 1: little damaged; 2: low damaged; 3: medium damaged; 4: serious damaged; 5: complete killed
# corn [11] = assay: Soil treatment test for upland field (Test Example 2): phytotoxicity to corn; conditions: soil treatment before germination, examined after 3 weeks; note: key: 0: normal growth; 1: little damaged; 2: low damaged; 3: medium damaged; 4: serious damaged; 5: complete killed
# soybean [12] = assay: Soil treatment test for upland field (Test Example 2): phytotoxicity to soybean; conditions: soil treatment before germination, examined after 3 weeks; note: key: 0: normal growth; 1: little damaged; 2: low damaged; 3: medium damaged; 4: serious damaged; 5: complete killed
# southern crabgrass = assay: Foliage treatment test for upland field (Test Example 3): southern crabgrass; conditions: foliage treatment at 1.0-2.0 leaf stage of southern crabgrass, examined after 3 weeks
# In short: (§3)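 Wettable powders diluted to the prescribed dose and sprayed at 15 L/are at the 1.0-2.0 leaf stage of southern crabgrass on glasshouse-grown plants (25° C average). Effect graded 0-5 after 3 weeks from growth inhibition versus untreated control (0: <20% to 5: 100%).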
# common lambsquaters = assay: Foliage treatment test for upland field (Test Example 3): common lambsquaters; conditions: foliage treatment at 1.0-2.0 leaf stage of southern crabgrass, examined after 3 weeks
# In short: as §3
# slender amaranth = assay: Foliage treatment test for upland field (Test Example 3): slender amaranth; conditions: foliage treatment at 1.0-2.0 leaf stage of southern crabgrass, examined after 3 weeks
# In short: as §3
# common purslane = assay: Foliage treatment test for upland field (Test Example 3): common purslane; conditions: foliage treatment at 1.0-2.0 leaf stage of southern crabgrass, examined after 3 weeks
# In short: as §3
# velvetleaf = assay: Foliage treatment test for upland field (Test Example 3): velvetleaf; conditions: foliage treatment at 1.0-2.0 leaf stage of southern crabgrass, examined after 3 weeks
# In short: as §3
# wheat [13] = assay: Foliage treatment test for upland field (Test Example 3): phytotoxicity to wheat; conditions: foliage treatment at 1.0-2.0 leaf stage of southern crabgrass, examined after 3 weeks; note: key: 0: normal growth; 1: little damaged; 2: low damaged; 3: medium damaged; 4: serious damaged; 5: complete killed
# In short: (§4)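 Crops sown in compost-mixed soil pots, kept in a glasshouse at 25° C. average. Effect scored after 3 weeks versus untreated control on a 0–5 scale (0 normal growth, 5 complete kill).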
# corn [14] = assay: Foliage treatment test for upland field (Test Example 3): phytotoxicity to corn; conditions: foliage treatment at 1.0-2.0 leaf stage of southern crabgrass, examined after 3 weeks
# In short: as §4
# soybean [15] = assay: Foliage treatment test for upland field (Test Example 3): phytotoxicity to soybean; conditions: foliage treatment at 1.0-2.0 leaf stage of southern crabgrass, examined after 3 weeks
# In short: as §4
structure (smiles),measurement,setting,value
COCC(=Cc1cccc(C(F)(F)F)c1)c1nc2cc(C(F)(F)F)ccc2o1 [Compound 52],Herbicidal Effect Barnyard grass,[1]; dose 2.5 g ai/a,5 (100%)
same,Herbicidal Effect Barnyard grass,[1]; dose 5 g ai/a,5 (100%)
same,Herbicidal Effect Monochoria vaginalis,[2]; dose 2.5 g ai/a,5 (100%)
same,Herbicidal Effect Monochoria vaginalis,[2]; dose 5 g ai/a,5 (100%)
same,Herbicidal Effect Japanese bulrush,[3]; dose 2.5 g ai/a,4 (80%-less than 100%)
same,Herbicidal Effect Japanese bulrush,[3]; dose 5 g ai/a,5 (100%)
same,Herbicidal Effect Flat sedge,[4]; dose 2.5 g ai/a,3 (60%-less than 80%)
same,Herbicidal Effect Flat sedge,[4]; dose 5 g ai/a,4 (80%-less than 100%)
same,Phytotoxicity Rice plant,rice plant; dose 2.5 g ai/a,0
same,Phytotoxicity Rice plant,rice plant; dose 5 g ai/a,1
same,Herbicidal Effect southern crabgrass,[5]; dose 2.5 g ai/a,5 (100%)
same,Herbicidal Effect southern crabgrass,[5]; dose 5 g ai/a,5 (100%)
same,Herbicidal Effect common lambsquaters,[6]; dose 2.5 g ai/a,5 (100%)
same,Herbicidal Effect common lambsquaters,[6]; dose 5 g ai/a,5 (100%)
same,Herbicidal Effect slender amaranth,[7]; dose 2.5 g ai/a,5 (100%)
same,Herbicidal Effect slender amaranth,[7]; dose 5 g ai/a,5 (100%)
same,Herbicidal Effect common purslane,[8]; dose 2.5 g ai/a,5 (100%)
same,Herbicidal Effect common purslane,[8]; dose 5 g ai/a,5 (100%)
same,Herbicidal Effect velvetleaf,[9]; dose 2.5 g ai/a,5 (100%)
same,Herbicidal Effect velvetleaf,[9]; dose 5 g ai/a,5 (100%)
same,Phytotoxicity wheat,wheat [10]; dose 2.5 g ai/a,1
same,Phytotoxicity wheat,wheat [10]; dose 5 g ai/a,1
same,Phytotoxicity corn,corn [11]; dose 2.5 g ai/a,1
same,Phytotoxicity corn,corn [11]; dose 5 g ai/a,1
same,Phytotoxicity soybean,soybean [12]; dose 2.5 g ai/a,0
same,Phytotoxicity soybean,soybean [12]; dose 5 g ai/a,1
same,Herbicidal Effect southern crabgrass,southern crabgrass; dose 2.5 g ai/a,5 (100%)
same,Herbicidal Effect southern crabgrass,southern crabgrass; dose 5 g ai/a,5 (100%)
same,Herbicidal Effect Common lambsquatters,common lambsquaters; dose 2.5 g ai/a,5 (100%)
same,Herbicidal Effect Common lambsquatters,common lambsquaters; dose 5 g ai/a,5 (100%)
same,Herbicidal Effect slender amaranth,slender amaranth; dose 2.5 g ai/a,5 (100%)
same,Herbicidal Effect slender amaranth,slender amaranth; dose 5 g ai/a,5 (100%)
same,Herbicidal Effect common purslane,common purslane; dose 2.5 g ai/a,5 (100%)
same,Herbicidal Effect common purslane,common purslane; dose 5 g ai/a,5 (100%)
same,Herbicidal Effect velvetleaf,velvetleaf; dose 2.5 g ai/a,5 (100%)
same,Herbicidal Effect velvetleaf,velvetleaf; dose 5 g ai/a,5 (100%)
same,Phytotoxicity wheat,wheat [13]; dose 2.5 g ai/a,1
same,Phytotoxicity wheat,wheat [13]; dose 5 g ai/a,1
same,Phytotoxicity corn,corn [14]; dose 2.5 g ai/a,1
same,Phytotoxicity corn,corn [14]; dose 5 g ai/a,1
same,Phytotoxicity soybean,soybean [15]; dose 2.5 g ai/a,1
same,Phytotoxicity soybean,soybean [15]; dose 5 g ai/a,2
CCOCC(=Cc1cccc(C(F)(F)F)c1)c1nc2cc(C(F)(F)F)ccc2o1 [Compound 54],Herbicidal Effect Barnyard grass,[1]; dose 2.5 g ai/a,5 (100%)
same,Herbicidal Effect Barnyard grass,[1]; dose 5 g ai/a,5 (100%)
same,Herbicidal Effect Monochoria vaginalis,[2]; dose 2.5 g ai/a,5 (100%)
same,Herbicidal Effect Monochoria vaginalis,[2]; dose 5 g ai/a,5 (100%)
same,Herbicidal Effect Japanese bulrush,[3]; dose 2.5 g ai/a,4 (80%-less than 100%)
same,Herbicidal Effect Japanese bulrush,[3]; dose 5 g ai/a,5 (100%)
same,Herbicidal Effect Flat sedge,[4]; dose 2.5 g ai/a,3 (60%-less than 80%)
same,Herbicidal Effect Flat sedge,[4]; dose 5 g ai/a,4 (80%-less than 100%)
same,Phytotoxicity Rice plant,rice plant; dose 2.5 g ai/a,1
same,Phytotoxicity Rice plant,rice plant; dose 5 g ai/a,1
same,Herbicidal Effect southern crabgrass,[5]; dose 2.5 g ai/a,5 (100%)
same,Herbicidal Effect southern crabgrass,[5]; dose 5 g ai/a,5 (100%)
same,Herbicidal Effect common lambsquaters,[6]; dose 2.5 g ai/a,5 (100%)
same,Herbicidal Effect common lambsquaters,[6]; dose 5 g ai/a,5 (100%)
same,Herbicidal Effect slender amaranth,[7]; dose 2.5 g ai/a,5 (100%)
same,Herbicidal Effect slender amaranth,[7]; dose 5 g ai/a,5 (100%)
same,Herbicidal Effect common purslane,[8]; dose 2.5 g ai/a,5 (100%)
same,Herbicidal Effect common purslane,[8]; dose 5 g ai/a,5 (100%)
same,Herbicidal Effect velvetleaf,[9]; dose 2.5 g ai/a,5 (100%)
same,Herbicidal Effect velvetleaf,[9]; dose 5 g ai/a,5 (100%)
same,Phytotoxicity wheat,wheat [10]; dose 2.5 g ai/a,1
same,Phytotoxicity wheat,wheat [10]; dose 5 g ai/a,1
same,Phytotoxicity corn,corn [11]; dose 2.5 g ai/a,1
same,Phytotoxicity corn,corn [11]; dose 5 g ai/a,1
same,Phytotoxicity soybean,soybean [12]; dose 2.5 g ai/a,0
same,Phytotoxicity soybean,soybean [12]; dose 5 g ai/a,1
same,Herbicidal Effect southern crabgrass,southern crabgrass; dose 2.5 g ai/a,5 (100%)
same,Herbicidal Effect southern crabgrass,southern crabgrass; dose 5 g ai/a,5 (100%)
same,Herbicidal Effect Common lambsquatters,common lambsquaters; dose 2.5 g ai/a,5 (100%)
same,Herbicidal Effect Common lambsquatters,common lambsquaters; dose 5 g ai/a,5 (100%)
same,Herbicidal Effect slender amaranth,slender amaranth; dose 2.5 g ai/a,5 (100%)
same,Herbicidal Effect slender amaranth,slender amaranth; dose 5 g ai/a,5 (100%)
same,Herbicidal Effect common purslane,common purslane; dose 2.5 g ai/a,5 (100%)
same,Herbicidal Effect common purslane,common purslane; dose 5 g ai/a,5 (100%)
same,Herbicidal Effect velvetleaf,velvetleaf; dose 2.5 g ai/a,5 (100%)
same,Herbicidal Effect velvetleaf,velvetleaf; dose 5 g ai/a,5 (100%)
same,Phytotoxicity wheat,wheat [13]; dose 2.5 g ai/a,1
same,Phytotoxicity wheat,wheat [13]; dose 5 g ai/a,1
same,Phytotoxicity corn,corn [14]; dose 2.5 g ai/a,1
same,Phytotoxicity corn,corn [14]; dose 5 g ai/a,2
same,Phytotoxicity soybean,soybean [15]; dose 2.5 g ai/a,2
same,Phytotoxicity soybean,soybean [15]; dose 5 g ai/a,2
